According to ChEMBL document CHEMBL1201862, “PubChem BioAssay data set” (2004):
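Exposure lasted 48 hours, with cells grown in 96-well plates and compounds tested at five concentrations. GI50 is the concentration that inhibits growth by half.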 The source made the active and inactive calls. Cut-off read from the data, not from the text of the source: active = GI50 up to about 1.1 µM and inactive = higher.

Assays:
Experiment in all cases: NCI anticancer screen, dose series, 48 h
[1] = tested on: NCI-H226
[2] = tested on: DLD-1
[3] = tested on: A498
[4] = tested on: UO-31
[5] = tested on: KM-20L2
[6] = tested on: 786-0
[7] = tested on: A549
[8] = tested on: KM12
[9] = tested on: MOLT-4
[10] = tested on: SK-MEL-28
[11] = tested on: HL-60
[12] = tested on: COLO 205
[13] = tested on: HT-29
[14] = tested on: OVCAR-4
[15] = tested on: NCI-H460
[16] = tested on: SW-620
[17] = tested on: U-251
[18] = tested on: RXF 631
[19] = tested on: XF498
[20] = tested on: SF-268
[21] = tested on: NCI-H23
[22] = tested on: M19-MEL
[23] = tested on: SNB-78
[24] = tested on: OVCAR-5
[25] = tested on: HCT-15
[26] = tested on: RXF 393
[27] = tested on: CAKI-1
[28] = tested on: K562
[29] = tested on: M14
[30] = tested on: IGROV-1
[31] = tested on: RPMI-8226
[32] = tested on: SNB-19
[33] = tested on: Malme-3M
[34] = tested on: DMS-273
[35] = tested on: DMS-114
[36] = tested on: SN12C
[37] = tested on: SK-MEL-2
[38] = tested on: HCC 2998
[39] = tested on: LXFL 529
[40] = tested on: SF-539
[41] = tested on: UACC-257
[42] = tested on: CCRF-CEM
[43] = tested on: OVCAR-8
[44] = tested on: EKVX
[45] = tested on: SK-MEL-5
[46] = tested on: SF-295
[47] = tested on: UACC-62
[48] = tested on: HOP-92
[49] = tested on: HCT-116
[50] = tested on: ACHN
[51] = tested on: OVCAR-3
[52] = tested on: LOX IMVI
[53] = tested on: SNB-75
[54] = tested on: SK-OV-3
[55] = tested on: NCI-H522
[56] = tested on: TK-10
[57] = tested on: HOP-62
[58] = tested on: SR

## Cc1cc(N(CCC#N)CCC#N)ccc1/C=C(\NC(=O)/C=C/c1ccccc1)NC(=O)Nc1ccccc1C
[1]
  GI50: 22.6 µM (inactive)
[2]
  GI50: 78.3 µM (inactive)
[3]
  GI50: 65.3 µM (inactive)
[4]
  GI50: > 100 µM (inactive)
[5]
  GI50: > 100 µM (inactive)
[6]
  GI50: 26.8 µM (inactive)
[7]
  GI50: > 100 µM (inactive)
[8]
  GI50: > 100 µM (inactive)
[9]
  GI50: > 100 µM (inactive)
[10]
  GI50: > 100 µM (inactive)
[11]
  GI50: > 100 µM (inactive)
[12]
  GI50: > 100 µM (inactive)
[13]
  GI50: > 100 µM (inactive)
[14]
  GI50: 26.8 µM (inactive)
[15]
  GI50: 76.2 µM (inactive)
[16]
  GI50: > 100 µM (inactive)
[17]
  GI50: 17.1 µM (inactive)
[18]
  GI50: 84.1 µM (inactive)
[19]
  GI50: > 10 µM (inactive)
[20]
  GI50: 24.7 µM (inactive)
[21]
  GI50: 58.7 µM (inactive)
[22]
  GI50: > 100 µM (inactive)
[23]
  GI50: 51.5 µM (inactive)
[24]
  GI50: > 100 µM (inactive)
[25]
  GI50: > 100 µM
[26]
  GI50: 17.2 µM (inactive)
[27]
  GI50: 69.7 µM (inactive)
[28]
  GI50: > 100 µM (inactive)
[29]
  GI50: > 100 µM (inactive)
[30]
  GI50: 68.4 µM (inactive)
[31]
  GI50: > 100 µM (inactive)
[32]
  GI50: 32.7 µM (inactive)
[33]
  GI50: > 100 µM (inactive)
[34]
  GI50: > 100 µM (inactive)
[35]
  GI50: 89.7 µM (inactive)
[36]
  GI50: 77.3 µM (inactive)
[37]
  GI50: 38.7 µM (inactive)
[38]
  GI50: > 100 µM (inactive)
[39]
  GI50: 47.6 µM (inactive)
[40]
  GI50: 38.1 µM (inactive)
[41]
  GI50: > 100 µM (inactive)
[42]
  GI50: > 100 µM (inactive)
[43]
  GI50: 30.2 µM (inactive)
[44]
  GI50: 86.1 µM (inactive)
[45]
  GI50: 61 µM (inactive)
[46]
  GI50: 25.4 µM (inactive)
[47]
  GI50: 46.1 µM (inactive)
[48]
  GI50: 23.4 µM (inactive)
[49]
  GI50: > 100 µM (inactive)
[50]
  GI50: 55.3 µM (inactive)
[51]
  GI50: > 100 µM (inactive)
[52]
  GI50: 63.4 µM (inactive)

## C=CC(=O)Nc1ccccc1CC(c1c[nH]c2ccccc12)c1c[nH]c2ccccc12
[1]
  GI50: 21.3 µM (inactive)
[4]
  GI50: 15.9 µM (inactive)
[6]
  GI50: 18.8 µM (inactive)
[53]
  GI50: 14.1 µM (inactive)
[7]
  GI50: 23.4 µM (inactive)
[54]
  GI50: 19.8 µM (inactive)
[8]
  GI50: 19.7 µM (inactive)
[9]
  GI50: 19.5 µM (inactive)
[10]
  GI50: 17.8 µM (inactive)
[12]
  GI50: 16.7 µM (inactive)
[13]
  GI50: 18.3 µM (inactive)
[16]
  GI50: 20.2 µM (inactive)
[18]
  GI50: 16.7 µM (inactive)
[19]
  GI50: 21.1 µM (inactive)
[20]
  GI50: 24.1 µM (inactive)
[21]
  GI50: 20 µM (inactive)
[22]
  GI50: 15.6 µM (inactive)
[23]
  GI50: 16.3 µM (inactive)
[25]
  GI50: 18.7 µM
[26]
  GI50: > 10 µM (inactive)
[55]
  GI50: 22.8 µM (inactive)
[27]
  GI50: 18.2 µM (inactive)
[28]
  GI50: 20.7 µM (inactive)
[29]
  GI50: 16.3 µM (inactive)
[30]
  GI50: 18.2 µM (inactive)
[31]
  GI50: 17.5 µM (inactive)
[32]
  GI50: 17.9 µM (inactive)
[33]
  GI50: 18 µM (inactive)
[34]
  GI50: 17.7 µM (inactive)
[35]
  GI50: 15.5 µM (inactive)
[36]
  GI50: 16.3 µM (inactive)
[37]
  GI50: 17.7 µM (inactive)
[38]
  GI50: 18.7 µM (inactive)
[39]
  GI50: 16.1 µM (inactive)
[40]
  GI50: 21.3 µM (inactive)
[41]
  GI50: 18.9 µM (inactive)
[42]
  GI50: 19.9 µM (inactive)
[43]
  GI50: 16.4 µM (inactive)
[44]
  GI50: 17.5 µM (inactive)
[45]
  GI50: 17.6 µM (inactive)
[46]
  GI50: 22.1 µM (inactive)
[47]
  GI50: 16.6 µM (inactive)
[56]
  GI50: 26.7 µM (inactive)
[51]
  GI50: 17.7 µM (inactive)
[57]
  GI50: 19.6 µM (inactive)
[52]
  GI50: 18.5 µM (inactive)

## Cc1cc(C)nc(NS(=O)(=O)c2ccc(Nc3c4ccccc4nc4c(C(=O)N5CCN(CCOS(C)(=O)=O)CC5)ccc(Cl)c34)cc2)n1
[1]
  GI50: > 100 µM (inactive)
[2]
  GI50: > 100 µM (inactive)
[3]
  GI50: > 100 µM (inactive)
[4]
  GI50: > 100 µM (inactive)
[5]
  GI50: > 100 µM (inactive)
[6]
  GI50: 43.7 µM (inactive)
[53]
  GI50: > 100 µM (inactive)
[7]
  GI50: > 100 µM (inactive)
[54]
  GI50: > 100 µM (inactive)
[8]
  GI50: > 100 µM (inactive)
[9]
  GI50: > 100 µM (inactive)
[10]
  GI50: > 100 µM (inactive)
[11]
  GI50: > 100 µM (inactive)
[12]
  GI50: > 100 µM (inactive)
[13]
  GI50: > 100 µM (inactive)
[14]
  GI50: > 100 µM (inactive)
[15]
  GI50: > 100 µM (inactive)
[17]
  GI50: > 100 µM (inactive)
[18]
  GI50: > 100 µM (inactive)
[19]
  GI50: > 100 µM (inactive)
[20]
  GI50: > 100 µM (inactive)
[21]
  GI50: > 100 µM (inactive)
[22]
  GI50: > 100 µM (inactive)
[23]
  GI50: > 100 µM (inactive)
[24]
  GI50: > 100 µM (inactive)
[25]
  GI50: > 100 µM
[26]
  GI50: > 100 µM (inactive)
[27]
  GI50: > 100 µM (inactive)
[28]
  GI50: > 100 µM (inactive)
[29]
  GI50: 38 µM (inactive)
[30]
  GI50: > 100 µM (inactive)
[31]
  GI50: > 100 µM (inactive)
[32]
  GI50: > 100 µM (inactive)
[33]
  GI50: > 100 µM (inactive)
[58]
  GI50: > 100 µM (inactive)
[34]
  GI50: > 100 µM (inactive)
[35]
  GI50: > 100 µM (inactive)
[36]
  GI50: > 100 µM (inactive)
[37]
  GI50: > 100 µM (inactive)
[38]
  GI50: > 100 µM (inactive)
[40]
  GI50: > 100 µM (inactive)
[41]
  GI50: > 100 µM (inactive)
[42]
  GI50: > 100 µM (inactive)
[43]
  GI50: > 100 µM (inactive)
[45]
  GI50: > 100 µM (inactive)
[46]
  GI50: > 100 µM (inactive)
[47]
  GI50: > 100 µM (inactive)
[48]
  GI50: > 100 µM (inactive)
[56]
  GI50: 54.1 µM (inactive)
[49]
  GI50: > 100 µM (inactive)
[50]
  GI50: > 100 µM (inactive)
[51]
  GI50: > 100 µM (inactive)
[57]
  GI50: > 100 µM (inactive)
